Consider one compound from paper PMC12523303, “Multi-Fused S,N-Heterocyclic Compounds for Targeting α-Synuclein Aggregates” (Cells, 2025).

Molecules are shown by their SMILES. Like-named read-outs stand apart in the source and are kept apart here.

The target in data set [1] is T1, α-synuclein (α-syn) aggregates in PD brain homogenates (Homo sapiens, UniProt P37840).
T1 construct: Anterior cingulate cortex tissue from a Parkinson’s disease (PD) case; tissue Banner Sun Health Research Institute (Dr. Thomas Beach); host or cells: post-mortem human PD anterior cingulate cortex homogenate
The data set can be described thus: In vitro competition (Ki) assay vs [3H]asyn-44 in PD brain homogenates. The format is binding. Particulars: 1 nM [3H]asyn-44. As to the method: Anterior cingulate cortex tissue from a Parkinson’s disease (PD) case was generously provided by Dr. Thomas Beach at the Banner Sun Health Research Institute in Arizona, USA. […] Preparation of the frozen blocks for binding assays followed previously established protocols.
The equilibrium inhibition constants (Ki) for the unlabelled compounds were measured against [^3H]asyn-44 using our previously reported procedure. For these assays, frozen aliquots of homogenized human brain tissue (stored at −80 °C) were used. Homogenates were prepared at 10 mg/mL in phosphate-buffered saline, then diluted with 50 mM Tris buffer (pH 7.0) to a working concentration of 1 mg/mL.
Unlabeled competitor compounds were initially dissolved in DMSO at 400 μM, then diluted with Tris buffer to 20 μM, resulting in a 5% DMSO concentration. A serial dilution series (ranging from 6 μM to 4 nM) was prepared in the same 5% DMSO/Tris buffer solution to maintain consistent solvent conditions throughout the assay.
To perform the binding assay, 50 μL of the appropriately diluted competitor solution was mixed with 50 μL of [^3H]asyn-44 (1 nM final concentration) and 800 μL of Tris buffer containing 20% ethanol and 0.1% bovine serum albumin (BSA). Then, 100 μL of the 1 mg/mL brain homogenate was added, bringing the final tissue concentration to 100 μg/mL. The reaction mixtures were incubated at room temperature for 60 min before filtration through Whatman GF/B glass fibre filters using a Brandel M-24R cell harvester (Gaithersburg, MD, USA). Filters were washed three times with 3 mL of Tris buffer containing 20% ethanol and 0.1% BSA.
After washing, retained radioactivity was measured using CytoScint-ES scintillation fluid following thorough vortexing. Specific binding was calculated by correcting for nonspecific binding (as described later), and the amount of bound radioligand was derived from the filter-associated radioactivity and the molar activity of the tritiated compound.

Data set [2] concerns the target [^3H]Z-2340 binding in post-mortem Alzheimer’s disease (AD) brain tissue. In words: Competition binding vs [3H]Z-2340 in post-mortem AD brain tissue. Further details: species or system human. The source says:
(§1) We assessed the binding affinity of LMD-022 using a radioligand competition binding assay in post-mortem PD brain tissues. […] To evaluate potential off-target binding in AD brain tissues, we conducted additional binding assays using a panel of AD-related radioligands, including [^3H]PiB, [^3H]MK-6240, [^3H]Z-2340, and [^3H]PI-2620. […] Our future work will aim to optimize chemical yields of lead compounds, including LMD-022, and carry out α-syn fibril seed amplification assays or immunohistochemical co-localization with pathologic α-syn to verify target engagement as well as radiolabel lead molecules for in vivo PET imaging studies.

A short description of data set [3]: Metabolic stability in human liver microsomes. The format is in vitro ADME. As to the method:
Metabolic stability assays were conducted using pooled human liver microsomes (HLMs) to evaluate the rate of in vitro metabolic degradation of the test compound. Incubations were carried out in duplicate (n = 2) at a final compound concentration of 1 μM. The protein concentration of the microsomal suspension was adjusted to 0.5 mg/mL using phosphate buffer (100 mM, pH 7.4). Reactions were initiated by the addition of NADPH (final concentration 1 mM) and incubated at 37 °C. Aliquots were taken at four time points: 0, 5, 15, and 30 min. Each reaction was quenched with ice-cold acetonitrile containing internal standard, followed by centrifugation to pellet proteins. Supernatants were analyzed using a validated LC-MS/MS method to determine the concentration of the parent compound at each time point. […] Metabolic stability was assessed by calculating the percentage of the parent compound remaining at each time point. The elimination rate constant (k), half-life (t1/2), and intrinsic clearance (CLint) were derived from the natural log-transformed concentration vs. time data, assuming first-order kinetics.

Data set [4] concerns the target [^3H]MK-6240 binding in post-mortem Alzheimer’s disease (AD) brain tissue (Homo sapiens, UniProt P10636). The data set can be described thus: Competition binding vs [3H]MK-6240 in post-mortem AD brain tissue.
From the text: as §1

Data set [5] has as its target [^3H]PI-2620 binding in post-mortem Alzheimer’s disease (AD) brain tissue (Homo sapiens, UniProt P10636). In words: Competition binding vs [3H]PI-2620 in post-mortem AD brain tissue.
From the text: as §1

Data set [6] addresses T1, α-synuclein (α-syn) aggregates in PD brain homogenates. In words: Two point screening assay (30 nM and 300 nM) vs [3H]asyn-44 in human PD brain homogenates. Type of data set: binding. As to the method: Screening assays for the test compounds were performed at two concentrations—30 nM and 300 nM—using unlabelled competitors in human PD brain homogenates against [^3H]asyn-44 as previously described. […] Each assay was conducted in triplicate for both concentrations to ensure reproducibility and statistical reliability.

The target in data set [7] is T2, MDR1-transfected MDCK cells (Homo sapiens, UniProt P08183).
T2 construct: host or cells: MDCK cells
In words: Bidirectional transport in MDR1-transfected MDCK cell monolayers. Type of data set: in vitro ADME. The settings on record: MDR1-MDCK. As to the method:
(§2) MDR1-transfected MDCK cell monolayers, cultured for 5 days and obtained from the Netherlands Cancer Institute, were used for the in vitro bidirectional transport studies. Cells were maintained in Dulbecco’s Modified Eagle Medium (DMEM) supplemented with 10% fetal bovine serum (FBS) and 1% penicillin–streptomycin. They were subcultured every other day at a split ratio of 1:3 to 1:5. For transport experiments, cells were seeded onto polycarbonate Transwell® filter inserts (Millipore) in 24-well plates at a density of 500,000 cells per well. After 24 h, the medium was replaced, and the cells were cultured for an additional 4 days to allow tight junction formation before initiating the transport assays. Transport studies were performed in duplicate using a 2 μM concentration of test compound, in both apical-to-basolateral (A→B) and basolateral-to-apical (B→A) directions. The apparent permeability coefficient (P_app) was calculated using the following equation: Papp (cm/s) = (Vr/C0) (1/S) (dC/dt)
(§3) • P_app is the apparent permeability, • V_r is the volume of the receiver chamber, • C0 is the initial concentration in the donor chamber, • S is the surface area of the cell monolayer (0.7 cm^2; for a 24-well insert), • dC/dt is the rate of appearance of the compound in the receiver chamber.
(§4) The efflux ratio was calculated as: (1) Efflux ratio=Papp B−A/Papp A−B
(§5) Bioanalysis was carried out using LC-MS/MS.

For the next data set, the target named is T3, MDR1 (Homo sapiens, UniProt P08183).
T3 construct: host or cells: MDCK cells
The data set is described as above. Particulars: dog; for recovery at 2 μM: MDCK-MDR1, MDR1-MDCK permeability assay. Type of data set: in vitro ADME. As to the method: as §2, §3, §4, §5

Data set [8] deals with T4, [^3H]PiB binding in post-mortem Alzheimer’s disease (AD) brain tissue (Homo sapiens, UniProt P05067).
T4 construct: from tissue; host or cells: post-mortem AD brain tissue
In words: Competition binding vs [3H]PiB in post-mortem AD brain tissue.
From the text: as §1

T3 sequence (P08183 whole entry): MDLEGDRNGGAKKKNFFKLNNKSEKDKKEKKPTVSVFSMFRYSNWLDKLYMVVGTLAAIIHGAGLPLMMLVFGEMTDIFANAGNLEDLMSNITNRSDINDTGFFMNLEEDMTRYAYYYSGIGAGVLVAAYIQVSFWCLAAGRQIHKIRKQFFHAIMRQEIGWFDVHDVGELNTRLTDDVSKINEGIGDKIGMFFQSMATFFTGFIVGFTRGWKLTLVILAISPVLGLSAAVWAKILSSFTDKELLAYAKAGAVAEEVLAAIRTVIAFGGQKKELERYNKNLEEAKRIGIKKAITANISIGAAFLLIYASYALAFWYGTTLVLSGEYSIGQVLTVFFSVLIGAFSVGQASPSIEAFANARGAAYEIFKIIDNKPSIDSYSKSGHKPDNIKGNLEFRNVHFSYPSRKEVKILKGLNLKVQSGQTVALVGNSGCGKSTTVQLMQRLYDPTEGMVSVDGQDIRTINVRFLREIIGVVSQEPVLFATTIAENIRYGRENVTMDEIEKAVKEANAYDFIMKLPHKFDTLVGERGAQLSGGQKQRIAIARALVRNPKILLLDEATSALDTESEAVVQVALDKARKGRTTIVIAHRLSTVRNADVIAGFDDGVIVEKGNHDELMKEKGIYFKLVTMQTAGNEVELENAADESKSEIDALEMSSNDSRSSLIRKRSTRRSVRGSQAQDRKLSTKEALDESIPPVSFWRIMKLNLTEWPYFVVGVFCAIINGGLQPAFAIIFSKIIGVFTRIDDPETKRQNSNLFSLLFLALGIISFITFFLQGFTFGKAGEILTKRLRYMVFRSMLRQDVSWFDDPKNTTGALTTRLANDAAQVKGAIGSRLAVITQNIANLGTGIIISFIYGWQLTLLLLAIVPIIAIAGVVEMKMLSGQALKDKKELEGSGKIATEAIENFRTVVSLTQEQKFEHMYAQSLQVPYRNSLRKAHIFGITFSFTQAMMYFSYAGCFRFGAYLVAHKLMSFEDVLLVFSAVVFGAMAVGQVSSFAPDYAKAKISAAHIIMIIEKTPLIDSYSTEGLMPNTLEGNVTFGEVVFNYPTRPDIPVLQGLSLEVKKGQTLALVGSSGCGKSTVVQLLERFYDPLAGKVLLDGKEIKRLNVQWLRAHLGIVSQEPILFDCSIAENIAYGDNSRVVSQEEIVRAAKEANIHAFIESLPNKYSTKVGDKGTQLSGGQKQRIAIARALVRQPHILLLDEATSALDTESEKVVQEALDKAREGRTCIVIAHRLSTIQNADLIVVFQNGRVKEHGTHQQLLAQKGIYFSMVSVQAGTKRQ
T2 sequence (P08183 whole entry): as above
[^3H]PI-2620 binding in post-mortem Alzheimer’s disease (AD) brain tissue, sequence (P10636 623-695 limits assumed): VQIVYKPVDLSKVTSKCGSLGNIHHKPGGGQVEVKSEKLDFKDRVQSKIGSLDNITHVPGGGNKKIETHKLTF
[^3H]MK-6240 binding in post-mortem Alzheimer’s disease (AD) brain tissue, sequence (P10636 623-758 limits assumed): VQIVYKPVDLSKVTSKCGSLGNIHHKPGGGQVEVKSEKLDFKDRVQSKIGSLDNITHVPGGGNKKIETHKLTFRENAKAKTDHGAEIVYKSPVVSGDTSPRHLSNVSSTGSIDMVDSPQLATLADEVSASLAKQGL
T4 sequence (P05067 672-713 limits assumed): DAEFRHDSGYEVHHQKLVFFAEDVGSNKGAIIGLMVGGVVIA

On to `O=C1NCc2nc(-c3cnc(N4CC[C@@H](F)C4)cn3)ccc21` [LMD-022], for which the Ki in data set [1] was 16 nM; in data set [2] it was greater than 10000 nM; in data set [4] it was greater than 10000 nM; in data set [5] it was 2760 nM; in [8], greater than 10000 nM. The t1/2 in data set [3] (human liver microsomes (h-MR)) came to 1.26 h. Further, in [3] (human liver microsomes, 5 min), the “% disappearance at 5 minutes relative to time zero” value turned out to be 7.6%. For the same compound, the “% disappearance at 15 minutes relative to time zero” value in data set [3] (human liver microsomes, 15 min) worked out at 17.8%. In addition, in [3] (human liver microsomes, 30 min), the “% disappearance at 30 minutes relative to time zero” value was 24.6%. The “Clearance Category” value in data set [3] (human liver microsomes, as per Cyprotex Website) is recorded as “Moderate”. The half-life at 1 μM in data set [3] (human, pooled human liver microsomes, pH 7.4, human liver microsomes (h-MR)) was determined as 1.25 h. This compound also gave a fraction remaining at 5 min, 1 μM in [3] (pooled human liver microsomes, pH 7.4, human liver microsomes, 1 μM, 5 min) of 92.4%. Moreover, in [3] (pooled human liver microsomes, pH 7.4, human liver microsomes, 1 μM, 30 min), the share remaining at 0.5 h, 1 μM amounted to 75.4%. The remaining activity at 0.03 µM in data set [6] (30 nM competitor) came out at 40%. The compound also had a remaining activity at 0.3 µM in data set [6] (300 nM competitor) of 15%. Moreover, in data set [7], the “Efflux Category” value is “Not a substrate”. In addition, the “Permeability Category” value in data set [7] is listed as “High”. Further, the recovery at 2 μM on MDR1 (A→B, read-out: Calculated recovery, A→B direction) is 61.9%; on MDR1 (B→A, read-out: Calculated recovery, B→A direction), 120%. In addition, the Papp A→B at 2 μM at MDR1 (MDCK-MDR1, apical-to-basolateral, 2 μM, read-out: A→B apparent permeability) was determined as 40.6 ×10⁻⁶ cm/s. For the same compound, the Papp B→A at 2 μM at MDR1 (MDCK-MDR1, basolateral-to-apical, 2 μM, read-out: B→A apparent permeability) was 37.6 ×10⁻⁶ cm/s. For the same compound, the efflux ratio at 2 μM at MDR1 (MDR1-MDCK, read-out: Efflux Ratio (B→A/A→B)) came out at 0.93.
